Reference: ChEMBL document CHEMBL1201862, “PubChem BioAssay data set” (2004)
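1) Cells in 96-well plates. 2) Compound, 48 h, 5 concentrations. 3) Linear interpolation between surrounding doses. 4) Unreached endpoint = highest concentration. At the GI50, growth is halved.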 The source made the active and inactive calls. Cut-off read from the data, not from the text of the source: active = GI50 up to about 1.1 µM and inactive = higher.

Assays:
Test in all cases: NCI-60 cell line screen, 48 h
HCC 2998 = test system: HCC 2998
SF-295 = test system: SF-295
NCI-H460 = test system: NCI-H460
T47D = test system: T47D
NCI-H23 = test system: NCI-H23
HL-60 = test system: HL-60
PC-3 = test system: PC-3
SNB-19 = test system: SNB-19
SNB-75 = test system: SNB-75
786-0 = test system: 786-0
SN12C = test system: SN12C
LOX IMVI = test system: LOX IMVI
UACC-62 = test system: UACC-62
MCF7 = test system: MCF7
MOLT-4 = test system: MOLT-4
UO-31 = test system: UO-31
Malme-3M = test system: Malme-3M
NCI-H522 = test system: NCI-H522
SK-OV-3 = test system: SK-OV-3
ACHN = test system: ACHN

Row | SMILES | GI50 (HCC 2998) | GI50 (SF-295) | GI50 (NCI-H460) | GI50 (T47D) | GI50 (NCI-H23) | GI50 (HL-60) | GI50 (PC-3) | GI50 (SNB-19) | GI50 (SNB-75) | GI50 (786-0) | GI50 (SN12C) | GI50 (LOX IMVI) | GI50 (UACC-62) | GI50 (MCF7) | GI50 (MOLT-4) | GI50 (UO-31) | GI50 (Malme-3M) | GI50 (NCI-H522) | GI50 (SK-OV-3) | GI50 (ACHN)
1 | NC(=O)NC(=O)c1ccc(NC(=O)CBr)cc1 | 12.8 µM (inactive) | 13.6 µM (inactive) | 4.66 µM (inactive) | 1.67 µM (inactive) | 2.06 µM (inactive) | 1.54 µM (inactive) | 1.96 µM (inactive) | 21.9 µM (inactive) | 1.81 µM (inactive) | 0.278 µM (active) | 0.561 µM (active) | 0.558 µM (active) | 1.86 µM (inactive) | 1.76 µM (inactive) | 0.241 µM (active) | 1.42 µM (inactive) | 1.54 µM (inactive) | 0.128 µM (active) | 3.27 µM (inactive) | 1.44 µM (inactive)
2 | CC(=O)NC1C(OCc2ccccc2)OC(CO)C(O)C1OCC(=O)N[C@@H](C)C(=O)N[C@H](CCC(=O)NCCNCCNc1c2ccccc2nc2cccc([N+](=O)[O-])c12)C(N)=O (stereo not given in full) | 6.52 µM (inactive) | 57.4 µM (inactive) | 15.1 µM (inactive) | 27.5 µM (inactive) | 16.4 µM (inactive) | 26.2 µM (inactive) | 22.1 µM (inactive) | 38.9 µM (inactive) | 33.2 µM (inactive) | 25.4 µM (inactive) | 59.7 µM (inactive) | 23.5 µM (inactive) | 17.7 µM (inactive) | 37.9 µM (inactive) |  | 44.8 µM (inactive) | 19.2 µM (inactive) | 4.92 µM (inactive) | 78.5 µM (inactive) | 26.7 µM (inactive)
3 | O/N=N/c1cnccn1 | > 1250 µM (inactive) | > 1250 µM (inactive) | 724 µM (inactive) | 933 µM (inactive) | 859 µM (inactive) | 322 µM (inactive) | > 1250 µM (inactive) | > 1250 µM (inactive) | > 1110 µM (inactive) | > 1250 µM (inactive) | > 1250 µM (inactive) | 1190 µM (inactive) | > 959 µM (inactive) | 531 µM (inactive) | 196 µM (inactive) | > 1250 µM (inactive) | > 1250 µM (inactive) | 1030 µM (inactive) | > 269 µM (inactive) | 480 µM (inactive)
4 | N#Cc1ccc(C(=O)/C=C/c2ccc(O)c(O)c2)cc1 | 14.8 µM (inactive) | 17.7 µM (inactive) | 16.1 µM (inactive) | 16.3 µM (inactive) | 16.9 µM (inactive) | 2.5 µM (inactive) | 15.3 µM (inactive) | 15.8 µM (inactive) | 17.4 µM (inactive) | > 38.4 µM (inactive) | 15.5 µM (inactive) | 11.5 µM (inactive) | 17.1 µM (inactive) | 13 µM (inactive) | 8.38 µM (inactive) | 12.4 µM (inactive) | 15.7 µM (inactive) | 1.53 µM (inactive) | 21.9 µM (inactive) | 17.3 µM (inactive)
5 | Cc1cc2[nH]c(Cl)c(/C=C3\C(=O)Nc4ccccc43)c2cc1O | 4.2 µM (inactive) | 2.79 µM (inactive) | 3.91 µM (inactive) | 10.9 µM (inactive) | 2.32 µM (inactive) | 1.14 µM (inactive) | 2.2 µM (inactive) | 3.27 µM (inactive) | 3.45 µM (inactive) | 5.4 µM (inactive) | 3.38 µM (inactive) | 3.16 µM (inactive) | 1.23 µM (inactive) | 1.88 µM (inactive) | 1.46 µM (inactive) | 4.45 µM (inactive) | 1.6 µM (inactive) | 1.5 µM (inactive) | 4.83 µM (inactive) | 6.53 µM (inactive)
6 | COc1cc2cc(C(=O)N3CC(COS(C)(=O)=O)c4ccc(NC(=O)OCc5ccccc5)cc43)[nH]c2c(OC)c1OC (stereo not given) | 84.3 µM (inactive) | > 100 µM (inactive) | 91.8 µM (inactive) | > 100 µM (inactive) | 17 µM (inactive) | > 100 µM (inactive) | > 100 µM (inactive) | > 100 µM (inactive) | 28.9 µM (inactive) | > 100 µM (inactive) | > 100 µM (inactive) | > 100 µM (inactive) | > 100 µM (inactive) | 0.55 µM (active) | 28.3 µM (inactive) | > 100 µM (inactive) | > 100 µM (inactive) | 99.1 µM (inactive) | > 100 µM (inactive) | > 100 µM (inactive)
7 | COc1c2ccsc2c(OC)c2ccsc12 | > 100 µM (inactive) | 61.8 µM (inactive) | > 100 µM (inactive) | > 100 µM (inactive) | > 100 µM (inactive) | > 100 µM (inactive) | > 100 µM (inactive) | > 100 µM (inactive) | 42.6 µM (inactive) | > 100 µM (inactive) | > 100 µM (inactive) | > 100 µM (inactive) | > 100 µM (inactive) | > 100 µM (inactive) | > 100 µM (inactive) | > 100 µM (inactive) | > 100 µM (inactive) | > 100 µM (inactive) | > 100 µM (inactive) | > 100 µM (inactive)
8 | CCC1=NC(C(F)(F)F)(C(F)(F)F)N=C(/N=C(/N)N(C)C(C(C)C)P(=O)(OC(C)C)OC(C)C)O1 (stereo not given) | > 100 µM (inactive) | > 100 µM (inactive) | > 100 µM (inactive) | > 100 µM (inactive) | > 100 µM (inactive) | > 100 µM (inactive) | > 100 µM (inactive) | > 100 µM (inactive) | > 100 µM (inactive) | > 100 µM (inactive) | > 100 µM (inactive) | > 100 µM (inactive) | > 100 µM (inactive) | > 100 µM (inactive) | > 100 µM (inactive) | > 100 µM (inactive) | > 100 µM (inactive) | > 100 µM (inactive) | > 100 µM (inactive) | > 100 µM (inactive)
9 | CCCC(=O)Nc1cn(COC)c(C(=O)N2C[C@H]3C[C@@]34C2=CC(=O)c2[nH]cc(C)c24)n1 | 2.89 µM (inactive) | 7.94 µM (inactive) | 3.24 µM (inactive) | 1.88 µM (inactive) | 2.02 µM (inactive) | 0.728 µM (active) | 12.6 µM (inactive) | 18.1 µM (inactive) | 4.73 µM (inactive) | 2.79 µM (inactive) | 11.5 µM (inactive) | 7.14 µM (inactive) | 5.92 µM (inactive) | 1.32 µM (inactive) | 0.553 µM (active) | 10.6 µM (inactive) | 2.44 µM (inactive) | 1.65 µM (inactive) | 16.7 µM (inactive) | 2.42 µM (inactive)
10 | O=C1Nc2ccccc2/C1=C1/Nc2ccccc2/C1=N/OCCOCCO | 2.76 µM (inactive) | 3.1 µM (inactive) | 1.21 µM (inactive) | 2.89 µM (inactive) | 3.07 µM (inactive) | 2.11 µM (inactive) | 2.36 µM (inactive) | 6.52 µM (inactive) | 2.35 µM (inactive) | 2.48 µM (inactive) | 2.69 µM (inactive) | 0.869 µM (active) | 1.44 µM (inactive) | 1.99 µM (inactive) | 2.96 µM (inactive) | 0.662 µM (active) | 1.43 µM (inactive) | 2.47 µM (inactive) | 0.361 µM (active) | 0.738 µM (active)
11 | COc1ccc(/C=C/C(=N/NC(=O)N/N=C(/C=C/c2ccc(OC)cc2)C(C)C)C(C)C)cc1 | 38.7 µM (inactive) | 99.1 µM (inactive) | 48.3 µM (inactive) | 25.9 µM (inactive) | > 100 µM (inactive) | 33 µM (inactive) | 50.9 µM (inactive) | > 100 µM (inactive) | > 100 µM (inactive) | > 100 µM (inactive) | > 100 µM (inactive) | > 100 µM (inactive) | > 100 µM (inactive) | 64.6 µM (inactive) | 26.1 µM (inactive) | 76.2 µM (inactive) | 62.8 µM (inactive) | 63.1 µM (inactive) | > 100 µM (inactive) | 73.8 µM (inactive)
12 | CC(=O)O[C@H](C[C@@H](C)[C@H]1C(=O)[C@H](O)[C@@]2(C)C3CC[C@H]4C(C)(C)[C@@H](OC5OCC(O)C(O)C5O)CC[C@@]45C[C@@]35CC[C@]12C)[C@@H]1OC1(C)C (stereo not given in full) | 16.3 µM (inactive) | 16.3 µM (inactive) | 16.9 µM (inactive) | 17.4 µM (inactive) | 23.9 µM (inactive) | 2.21 µM (inactive) | 15.2 µM (inactive) | 20.1 µM (inactive) | 12.1 µM (inactive) | 16.6 µM (inactive) | 18.9 µM (inactive) | 30.3 µM (inactive) | 14.1 µM (inactive) | 17.9 µM (inactive) |  | 22.9 µM (inactive) | 17.2 µM (inactive) | 17.4 µM (inactive) | 12.7 µM (inactive) | 14 µM (inactive)
13 | Nc1nc(NCC2(CO)CCC2)cc(=O)[nH]1 | > 100 µM (inactive) | > 100 µM (inactive) | > 100 µM (inactive) | > 100 µM (inactive) | > 100 µM (inactive) | > 100 µM (inactive) | > 100 µM (inactive) | > 100 µM (inactive) | > 100 µM (inactive) | > 100 µM (inactive) | > 100 µM (inactive) | > 100 µM (inactive) | > 100 µM (inactive) | > 100 µM (inactive) | > 100 µM (inactive) | > 100 µM (inactive) | > 100 µM (inactive) | > 100 µM (inactive) | > 100 µM (inactive) | 
14 | C/C=C/COc1cc(NC(=S)c2ccoc2C)ccc1OC | > 100 µM (inactive) | 77.8 µM (inactive) |  | 43.3 µM (inactive) | > 100 µM (inactive) | 60.3 µM (inactive) | > 100 µM (inactive) | 26.7 µM (inactive) | 27.7 µM (inactive) | 75.3 µM (inactive) | 62.1 µM (inactive) | > 100 µM (inactive) | > 100 µM (inactive) | > 100 µM (inactive) | > 100 µM (inactive) | 61.4 µM (inactive) | 89.1 µM (inactive) | 66.1 µM (inactive) | 61.1 µM (inactive) | 
